One assay has as its system HL60. Further details: method as in PMID 20183309, PMID 26757019, doi:10.1016/j.tetlet.2007.10.133, PMID 19431012. The conditions noted are these: Figure 1; cited from earlier work.
In a further assay the test system is HeLa. Also on record: method as in PMID 20183309, PMID 26757019, doi:10.1016/j.tetlet.2007.10.133, PMID 19431012. The conditions noted are these: Figure 1; cited from earlier work.
The next assay has as its system MCF-7 cells. The assay is described as follows: MTT anti-proliferative assay, MCF-7. The format is cell-based. The conditions noted are these: Homo sapiens, MCF7, 48 h, means ± SD of three experiments. The method, then: (§1) A series of novel enmein-type diterpenoid derivatives, 5a–m, were synthesized by introducing a side chain containing a carbamate moiety at the C-6 position of compound 4. The anticancer activities of 5a–m were tested against three human cancer cell lines and one human normal cell line by MTT assay.
(§2) Human non-small cell lung cancer cell lines (A549), human liver cancer cell lines (HepG2), human breast cancer cell lines (MCF-7), and human normal cell lines (L-02) were purchased from the cell bank of the Chinese Academy of Sciences. All cells were placed in RPMI-1640 medium (added 10% fetal bovine serum, […]) and cultured in an aseptic environment with 5% CO2 at 37 °C.
(§3) All derivatives were evaluated for their anti-proliferative activities against three cancer cell lines and one normal cell line by MTT assay. The cells in the logarithmic growth phase were inoculated into 96-well plates (3 × 10^3 cells/well) and incubated for 48 h in a sterile environment with 5% CO2 at 37 °C to make them attach via cell adhesion; then, the cells were co-incubated with target compounds for 48 h. After that, MTT solution (10 µL/well) was added to the cell culture medium to continue incubation for 4 h, following which the medium was replaced with DMSO (150 µL/well). The absorbance values at 490 nm were determined using an enzyme meter (Safire 2, Tecan, Männedorf, Switzerland) and further converted to half-inhibitory concentration values of these compounds.

The next assay has as its system L-02 cells. The assay can be described thus: MTT anti-proliferative assay, normal L-02 cells. The format is cell-based. The note with it: Homo sapiens, L02, 48 h, means ± SD of three experiments. The protocol: as §1, §2, §3
Another assay concerns A549 cells. The assay can be described thus: MTT anti-proliferative assay, A549. It is filed as cell-based, human. The conditions noted are these: Homo sapiens, A549; MTT, 48 h; means ± SD of three experiments. The protocol:
as §1, §2, §3
(In general: Tetrazolium assays rely on reduction of a dye to a coloured formazan, in cell work by metabolically active cells.)

The test system of the next assay is HepG2 cells. The assay is described as follows: MTT anti-proliferative assay, HepG2. It is filed as cell-based, human. The note with it: for IC50: Homo sapiens, HepG2, MTT, 48 h, means ± SD of three experiments. The protocol:
as §1, §2, §3

Another assay relates to A549. Also on record: method as in PMID 20183309, PMID 26757019, doi:10.1016/j.tetlet.2007.10.133, PMID 19431012. The conditions noted are these: Figure 1; cited from earlier work.
The subject of a further assay is MCF-7. Also on record: method as in PMID 20183309, PMID 26757019, doi:10.1016/j.tetlet.2007.10.133, PMID 19431012. The note with it: Figure 1; cited from earlier work.

Some results are limits rather than exact numbers.

On to `C=C1C(=O)C23CC1CCC2C12COC(O)C1C(C)(C)CCC2OC3=O` (centres unmarked) [Isodocarpin], for which the values for the IC50 with HL60 and in the assay with HeLa were 0.57 µM and 4.01 µM, respectively.
Consider `C=C1C(=O)C23C(=O)OC45CCC(C)(C)C6C(OC(=O)CCC(=O)NCc7ccc(C)cc7)OCC64C2CCC1C3O5` (single isomer, unassigned; ent-6) [Compound 7b, ent-6β,14α-Dihydroxy-(1,7–1,14)-epoxy-7,15-dioxo-6,20-hemiketal-6,7-seco-16-kaurene-6β-yl 4-((4-methylbenzyl)amino)-4-oxobutanoate], for which the IC50 in the assay on MCF-7 cells was 12.8 ± 1.64 µM; with L-02 cells, more than 50 µM; in the assay with A549 cells it was 7.48 ± 1.31 µM; in the assay on HepG2 cells it was 10.5 ± 1.68 µM.
Consider `C=C1C(=O)[C@]23C[C@H]1C[C@H](O)C2[C@@]12CO[C@@H](OC)C1C(C)(C)CC[C@@H]2OC3=O` (some centres unmarked) [Rabdosin A], for which the IC50 is 3.53 µM with A549, 2.82 µM in the assay on MCF-7 and 2.11 µM with HL60.
In the case of `C=C1C(=O)C23C(=O)OC45CCC(C)(C)C6C(OC(=O)CCC(=O)NCc7ccc(Br)cc7)OCC64C2CCC1C3O5` (single isomer, unassigned; ent-6) [Compound 7g, ent-6β,14α-Dihydroxy-(1,7–1,14)-epoxy-7,15-dioxo-6,20-hemiketal-6,7-seco-16-kaurene-6β-yl 4-((4-bromobenzyl)amino)-4-oxobutanoate], the IC50 in the assay with MCF-7 cells is 13 ± 1.52 µM; with L-02 cells, more than 50 µM; in the assay on A549 cells it was 8.6 ± 2.65 µM; in the assay with HepG2 cells it was 8.78 ± 1.46 µM. Also, the “anticancer activity in words, HepG2” value in the assay on HepG2 cells (HepG2 cells) was “low micro-molar-level anticancer activities”.
`C=C1C(=O)C23C(=O)OC45CCC(C)(C)C6C(OC(=O)N7CCCC7)OCC64C2CCC1C3O5` (single isomer, unassigned; ent-6) [Compound 5f, ent-6β,14α-Dihydroxy-(1,7–1,14)-epoxy-7,15-dioxo-6,20-hemiketal-6,7-seco-16-kaurene-6β-yl pyrrolidine-1-carboxylate]: the IC50 in the assay with MCF-7 cells turned out to be 20.7 ± 1.2 µM; with L-02 cells, 45.9 ± 2.3 µM; with A549 cells it was 13.4 ± 2.19 µM; in the assay on HepG2 cells, 18.3 ± 1.36 µM.
The like results for `C=C1C(=O)C23C(=O)OC45CCC(C)(C)C6C(OC(=O)N7CCCCC7)OCC64C2CCC1C3O5` (single isomer, unassigned; ent-6) [Compound 5g, ent-6β,14α-Dihydroxy-(1,7–1,14)-epoxy-7,15-dioxo-6,20-hemiketal-6,7-seco-16-kaurene-6β-yl piperidine-1-carboxylate] were, in that order, 22.8 ± 2.13 µM, more than 50 µM, 15.3 ± 2.4 µM and 21.1 ± 2.5 µM.
The corresponding values for `C=C1C(=O)C23C(=O)OC45CCC(C)(C)C6C(OC(=O)N(CC)CC)OCC64C2CCC1C3O5` (single isomer, unassigned; ent-6) [Compound 5b, ent-6β,14α-Dihydroxy-(1,7–1,14)-epoxy-7,15-dioxo-6,20-hemiketal-6,7-seco-16-kaurene-6β-yl diethylcarbamate] are 17.6 ± 2.4 µM, more than 50 µM, 15.8 ± 1.5 µM and 15.2 ± 1.58 µM.
The like results for `C=C1C(=O)C23C(=O)OC45CCC(C)(C)C6C(OC(=O)CCC(=O)NCc7ccc(C(C)(C)C)cc7)OCC64C2CCC1C3O5` (single isomer, unassigned; ent-6) [Compound 7d, ent-6β,14α-Dihydroxy-(1,7–1,14)-epoxy-7,15-dioxo-6,20-hemiketal-6,7-seco-16-kaurene-6β-yl 4-((4-(tert-butyl)benz-yl)amino)-4-oxobutanoate] were, in that order, 7.64 ± 2.52 µM, 35.7 ± 2.66 µM, 6.41 ± 1.9 µM and 11.5 ± 1.58 µM.
For the compound `C=C1C(=O)C23C(=O)OC45CCC(C)(C)C6C(OC(=O)N7CCCCCC7)OCC64C2CCC1C3O5` (single isomer, unassigned; ent-6) [Compound 5h, ent-6β,14α-Dihydroxy-(1,7–1,14)-epoxy-7,15-dioxo-6,20-hemiketal-6,7-seco-16-kaurene-6β-yl azepane-1-carboxylate], the IC50 is 24 ± 2.55 µM with MCF-7 cells, more than 50 µM with L-02 cells, 18.4 ± 1.13 µM with A549 cells and 20.2 ± 1.33 µM with HepG2 cells.
The like results for `C=C1C(=O)C23C(=O)OC45CCC(C)(C)C6C(OC(=O)N(C)CC)OCC64C2CCC1C3O5` (single isomer, unassigned; ent-6) [Compound 5c, ent-6β,14α-Dihydroxy-(1,7–1,14)-epoxy-7,15-dioxo-6,20-hemiketal-6,7-seco-16-kaurene-6β-yl ethyl(methyl)carbamate] were, in that order, 21.9 ± 2.72 µM, more than 50 µM, 20.2 ± 1.46 µM and 22.5 ± 3.42 µM.

A word on the IC50: it is the concentration that gives 50% inhibition.
